Measured values reported in US6790644B2, “1,3-dicarbonyl-dioxygenase—a new c-c-bond cleaving enzyme” (Biocatalytics, Inc., priority 2001, dated 2004).
Where two headings read alike, the source gives them in different places.

Key:
[1] = target: T1, 1,3-dicarbonyl-dioxygenase (Acinetobacter johnsonii, UniProt Q8GNT2); assay: Substrate spectrum / apparent kinetic constants of purified 1,3-dicarbonyl-dioxygenase (UV assay and oxygen electrode); conditions: for KO2: polarographic, estimated from rate of oxygen depletion, substrate 0.5-1 mM; for O2/Substrate: oxygen consumed per substrate, oxygen electrode
Method: (§1) The reaction rates were determined by using the microcomputer regression program provided with the spectrophotometer (Winspec) based on the first ten absorbance measurements made at 5-s intervals.
Substrates were dissolved at a concentration of 0.001-1 mM in KH2PO4-buffer, 50 mM, pH 7.5 using a 10 mM stock solution. Duplicate absorption-measurements of 20 different dilutions were performed at 25° C. The molar absorption coefficients were calculated by linear regression.
(§2) Oxygen consumption during the enzyme reaction was measured with an oxygen-electrode-cell (Digital Oxygen System Model 10, Rank Brothers Ltd., Cambridge, England) as described previously (Beechey, R. B. and Ribbons, D. W. (1971). ‘Methods in Microbiology’.V. 6B. Edited by J. R. Norris and D. W. Ribbons. Academic press, London. ‘Oxygen electrode measurements’ (Chapter II) pp. 29-52.). The reaction mixture contained air-saturated KH2PO4-buffer, 50 mM, pH 7.5 at 25° C. (thermostat). The oxygen-electrode was calibrated by the sodium-sulfite-method. Varying concentrations of substrate (0.01-0.3 mM) were added and the resulting decrease of oxygen was determined.
Assuming the Michaelis-Menten-equation, Vmax and Ks values were calculated by non-linear curve-fit by the program microcal-origin. KO2 was estimated by polarographic methods, adding non limiting amounts of substrate (0.5-1 mM) and graphically determining the oxygen concentration at the point of half of the maximum activity. Ks-values were similarly confirmed by polarographic methods, by stepwise addition of substrate to a final concentration of 20-150 μM.

[2] = target: T1, 1,3-dicarbonyl-dioxygenase; assay: Products of various substrates determined by HPLC (cleavage stoichiometry, partially purified enzyme); assay type: biochemical; conditions: 25° C., one hour; for Substrate % (remaining): remaining substrate calculated; for Acetate % / Methylglyoxal %: oxygen saturated buffer
Excerpt: The products of the enzyme reaction were identified directly from the reaction mixture by in situ ^1H-NMR-spectroscopy (Pokorny, D., L. Brecker, M. Pogorevc, H. Griengl, W. Steiner, T. Kappe, and D. W. Ribbons. 1999. Proton-Nuclear Magnetic Resonance Analyses of the Substrate Specificity of a β-Ketolase from Pseudomonas putida, Acetopyruvate Hydrolase. J. Bacteriol. 181: 5051-5059.). Therefore a 200 MHz narrow bore magnet (Varian Gemini™ 2000, Varian, Inc., Palo Alto, Calif.) and a 5 mm broadband probe head were used. The NMR tube was rotated at 20 rps. For a lock a D2O vortex capillary was added to avoid ^1H/D exchange reactions. The overwhelming water-signal was suppressed with a presaturation method (Guéron, M., P. Plateau and M. Decorps. 1991. Solvent signal suppression in NMR. Prog. NMR Spectrosc. 23: 135-209. Hore, J. P. 1989. Solvent suppression. p. 64. In N. J. Oppenheimer and J. T. James (eds.), Methods Enzymol. 176. Academic Press, Inc., San Diego.). The following parameters were adjusted for a ^1H-frequency of 200 MHz: presaturation-duration of 1.0 s, ^1H-pulse-angle of 90, an acquisition-time of 2.0 s and a relaxation delay of 1.5 s. 64 Scans were accumulated and after a zero filling to 32 k datapoints the free induction decay was Fourier transformed. The water signal (4.70 ppm) was used as a reference. For standard reaction analytics HPLC-measurements were performed (Hewlett-Packard, column: Aminex-HPX-87H, UV- and RI-detector, eluent Sulfuric acid 0.005 M).
The cleavage-stoichiometry of several non-symmetrical substrates was also investigated, in order to be able to determine the regiospecificity of the enzyme. This was done by conversion of the respective substrate with partially purified enzyme. Methylglyoxal and acetate formed were measured by HPLC. Remaining substrate was calculated.

[3] = target: wild-type 1,3-dicarbonyl-dioxygenase (Acinetobacter johnsonii, UniProt Q8GNT2); assay: Relative activity of wild-type enzyme at non-limiting substrate concentrations; assay type: biochemical
Method: as §1, §2

[4] = target: T2, recombinant 1,3-dicarbonyl-dioxygenase (expressed in E.coli) (Acinetobacter johnsonii, UniProt Q8GNT2); assay: Relative activity of recombinant protein at non-limiting substrate concentrations; assay type: biochemical
T2 construct: made in house; host or cells: E. coli XL1 Blue, plasmid pMS470 (tac promoter, NdeI/HindIII)
Method: Expression constructs were expressed in E.coli XL1 Blue (Stratagene, La Jolla, Calif.), which was grown to an OD of 1 at 30° C. on rotatory shakers in erlenmeyer flasks, then induced with IPTG (0.3 mM) and incubated for another 5 hours.
as §1, §2

[5] = target: T1, 1,3-dicarbonyl-dioxygenase; assay type: biochemical
[6] = target: T1, 1,3-dicarbonyl-dioxygenase; assay type: biochemical; remark: listed apart in the source
Method: The freshly prepared solutions of the respecitive inhibitors in buffer were added to partially purified enzyme, which then was incubated at room temperature.
The freshly prepared solutions of the respective inhibitors in buffer were added to partially purified enzyme, which then was incubated at room temperature. […] For reactivation, purified enzyme, which had previously been inactivated by incubation with o-phenantroline (1 mM), was incubated with Tris-buffer (20 mM, pH 7.5) containing the respective metal-salts (5 mM).

[7] = apparent, relative to acetylacetone = 1.00, purified wild-type enzyme
[8] = inhibitor 2.5 mM, 2 min incubation, 0.5 mM acetylacetone, pH 7.5
[9] = inhibitor 2.5 mM, 10 min incubation, 0.5 mM acetylacetone, pH 7.5

CC(=O)CC(=O)c1ccccc1 [1-Phenyl-1,3-butandion, 1-Phenyl-1,3-butanedione]
Vmaxrel. [1, 7]: 0.15 | KO2 ([1]; apparent): 100 ± 15 µM | O2/Substrate [1]: 1.0 | Methylglyoxal/Acetate ([2]; substrate 1.6 mM): 9 | Substrate % (remaining) ([2]; substrate 1.6 mM): 24% | Acetate % ([2]; substrate 1.6 mM): 8% | Methylglyoxal % ([2]; substrate 1.6 mM): 68% | Vmax wild-type [3]: 0.05 | Vmax clone [4]: 0.08

CCOC(=O)C(=O)CC(C)=O [2,4-Dioxo-pentanoic-acid-ethyl-ester]
Vmaxrel. [1, 7]: 0.09 | KO2 ([1]; apparent): 91 ± 15 µM | O2/Substrate [1]: 1.0 | Vmax wild-type [3]: 0.10 | Vmax clone [4]: 0.08

O=S(=O)([O-])[O-].[Mn+2] [MnSO4]
Relative activity [%] 2 min (reactivation) [5]: 0% | Relative activity [%] 10 min (reactivation) [5]: 0%

O=C(O)CN(CCN(CC(=O)O)CC(=O)O)CC(=O)O [EDTA]
Relative activity [%] 2 min [6]: 85% | Relative activity [%] 10 min [6]: 36%

COC(C)=CC(C)=O [4-Methoxy-3-penten-2-one]
Vmaxrel. [1]: 0.00 | acceptance as substrate (in words) [1]: not accepted

c1cnc2c(c1)ccc1cccnc12 [o-Phenantroline]
Relative activity [%] 2 min [6]: 38% | Relative activity [%] 10 min [6]: 10%

OO [H2O2]
Relative activity [%] 2 min [6]: 0% | Relative activity [%] 10 min [6]: 0% | inactivation of the enzyme (in words) [6]: complete inactivation

CC(=O)C1CCCCC1=O (centres unmarked) [2-Acetocyclohexanone]
acceptance as substrate (in words) [1]: quite good reaction rated | Vmaxrel. [1, 7]: 0.58 | KO2 ([1]; apparent): 21 ± 5 µM | O2/Substrate [1]: 0.9 | Vmax wild-type [3]: 0.56 | Vmax clone [4]: 0.48

Oc1ccccc1O [catechol]
acceptance as substrate (in words) [1]: does not accept

[Cl][Fe]([Cl])[Cl] [FeCl3]
Relative activity [%] 2 min (reactivation) [5]: 0% | Relative activity [%] 10 min (reactivation) [5]: 0%

[N-]=[N+]=[N-].[Na+] [NaN3]
Relative activity [%] 2 min ([6]; pH 7.5): 54% | Relative activity [%] 10 min ([6]; pH 7.5): 38%

O=C(O)c1cc(SSc2ccc([N+](=O)[O-])c(C(=O)O)c2)ccc1[N+](=O)[O-] [DTNB, ‘5’-Dithio-bis-(2-dinitrobenzoic acid)]
Relative activity [%] 2 min [6, 8]: 88% | Relative activity [%] 10 min [6, 9]: 85%

Cc1cccc(O)c1O [methylcatechol]
acceptance as substrate (in words) [1]: does not accept

CC(=O)CC(=O)C(=O)O [2,4-Dioxo-pentanoic acid]
Vmaxrel. [1]: 0.00 | acceptance as substrate (in words) [1]: not cleaved

CoCl2
Relative activity [%] 2 min (reactivation) [5]: 0% | Relative activity [%] 10 min (reactivation) [5]: 0%

CC(=O)c1ccccc1O [(2-Hydroxyphenyl-)-ethan-1-one]
Vmaxrel. [1]: 0.00

CCCCCC(=O)CC(C)=O [2,4-Nonanedione]
Vmaxrel. [1, 7]: 0.56 | KO2 ([1]; apparent): 112 ± 15 µM | O2/Substrate [1]: 1.0 | Methylglyoxal/Acetate ([2]; substrate 4 mM): 1.4 | Substrate % (remaining) ([2]; substrate 4 mM): 17% | Acetate % ([2]; substrate 4 mM): 35% | Methylglyoxal % ([2]; substrate 4 mM): 48% | Vmax wild-type [3]: 0.30 | Vmax clone [4]: 0.25

[Cl][Cu][Cl] [CuCl2]
Relative activity [%] 2 min (reactivation) [5]: 0% | Relative activity [%] 10 min (reactivation) [5]: 0%

CC(=O)C1CCCC1=O (centres unmarked) [2-Acetocyclopentanone]
acceptance as substrate (in words) [1]: quite good reaction rated | Vmaxrel. [1, 7]: 0.52 | KO2 ([1]; apparent): 15 ± 5 µM | O2/Substrate [1]: 1.0 | Acetate % ([2]; substrate 4 mM): 90% | Vmax wild-type [3]: 0.31 | Vmax clone [4]: 0.43

CCOC(=O)OC(=O)OCC [Diethyl-pyrocarbonate]
Relative activity [%] 2 min [6, 8]: 18% | Relative activity [%] 10 min [6, 9]: 12%

CC(=O)CC(=O)C(C)(C)C [5,5-Dimethylhexan-2,4-dion, 5,5-Dimethylhexane-2,4-dione]
acceptance as substrate (in words) [1]: cleaved at significantly lower rates | Vmaxrel. [1, 7]: 0.25 | KO2 ([1]; apparent): 70 ± 15 µM | O2/Substrate [1]: 0.9 | Methylglyoxal/Acetate ([2]; substrate 4 mM): 3.3 | Substrate % (remaining) ([2]; substrate 4 mM): 9% | Acetate % ([2]; substrate 4 mM): 21% | Methylglyoxal % ([2]; substrate 4 mM): 70% | Vmax wild-type [3]: 0.05 | Vmax clone [4]: 0.08

O=S(=O)([O-])[O-].[Zn+2] [ZnSO4]
Relative activity [%] 2 min (reactivation) [5]: 0% | Relative activity [%] 10 min (reactivation) [5]: 0%

O=C(O)CI [Iodo-acetic-acid]
Relative activity [%] 2 min ([6]; pH 7.5): 100% | Relative activity [%] 10 min ([6]; pH 7.5): 72%

CC(=O)C(C)(C)C(C)=O [3,3-Dimethylpentanedione]
Vmaxrel. [1]: 0.00

[Cl][Ni][Cl] [NiCl2]
Relative activity [%] 2 min (reactivation) [5]: 0% | Relative activity [%] 10 min (reactivation) [5]: 0%

CCN=C=NCCCN(C)C [EDAC, 1-Ethyl-3-(3-dimethylaminopropyl)-carbodimide]
Relative activity [%] 2 min [6, 8]: 100% | Relative activity [%] 10 min [6, 9]: 95%

O=C1CCCC(=O)C1 [1,3-Cyclohexanedione]
Vmaxrel. [1]: 0.00 | acceptance as substrate (in words) [1]: not accepted as a substrate

O=S(=O)([O-])[O-].[Fe+2] [FeSO4]
Relative activity [%] 2 min (reactivation) [5]: 14% | Relative activity [%] 10 min (reactivation) [5]: 33% | restoration of enzyme-activity (in words) [5]: partially restores the enzyme-activity

O=C(O)c1cc[c]([Hg][OH])cc1 [p-Hydroxymercurybenzoic acid]
Relative activity [%] 2 min ([6]; pH 7.5): 56% | Relative activity [%] 10 min ([6]; pH 7.5): 45%

O=C1CCC(=O)O1 [Succinic anhydride]
Relative activity [%] 2 min [6, 8]: 62% | Relative activity [%] 10 min [6, 9]: 23%
